Measured values reported in the supplement of paper PMC10307832.

Tests used:
Test in all cases: relative viability (nuclei count vs DMSO), 5 days (fraction); higher = more cells survive
[1] = compound: Cn1cnc2c(F)c(Nc3ccc(Br)cc3Cl)c(C(=O)NOCCO)cc21 [Selumetinib] + CC(C)C[C@H](NC(=O)[C@H](Cc1ccccc1)NC(=O)c1cnccn1)B(O)O [Bortezomib] (partner 0.002 µM)
How it was run: (§1)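 Relative viability is defined as nuclei in treated wells over nuclei in vehicle wells. Duplicate plates were run and medians reported. Lung cancer cell lines in 1536-well plates were dosed by pin tool one day after seeding, with one drug or with a fixed anchor-drug dose plus five library-drug doses (not always all listed) in √10 steps, and nuclei were counted after 5 days.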

[2] = compound: CC1(C)CCC(CN2CCN(c3ccc(C(=O)NS(=O)(=O)c4ccc(NCC5CCOCC5)c([N+](=O)[O-])c4)c(Oc4cnc5[nH]ccc5c4)c3)CC2)=C(c2ccc(Cl)cc2)C1 [Venetoclax] + Cc1nc(NC(=O)N2CCC[C@H]2C(N)=O)sc1-c1ccnc(C(C)(C)C(F)(F)F)c1 [Alpelisib] (partner 2 µM)
How it was run: as §1

[3] = compound: CC1(C)CCC(CN2CCN(c3ccc(C(=O)NS(=O)(=O)c4ccc(NCC5CCOCC5)c([N+](=O)[O-])c4)c(Oc4cnc5[nH]ccc5c4)c3)CC2)=C(c2ccc(Cl)cc2)C1 [Venetoclax]
How it was run: (§2)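 On vehicle-anchored 1536-well plates, lung cancer cell lines held overnight at 37 °C were pinned with five library-drug doses (not always all listed) spaced by √10. With no medium change over 5 days, they were then fixed, permeabilised and Hoechst-stained in one step and imaged at 4×. MetaXpress counted nuclei, and viability is the median across plates of treated-well over vehicle-well nuclei. Acceptance needed control CV below 25% and at least one doubling.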

[4] = compound: Cn1cnc2c(F)c(Nc3ccc(Br)cc3Cl)c(C(=O)NOCCO)cc21 [Selumetinib]
How it was run: as §2

Row | Cell Line | relative viability ([1]; first compound 0.02 µM) | relative viability ([1]; first compound 0.06325 µM) | relative viability ([1]; first compound 0.2 µM) | relative viability ([1]; first compound 0.6325 µM) | relative viability ([2]; first compound 0.01 µM) | relative viability ([2]; first compound 0.03162 µM) | relative viability ([2]; first compound 0.1 µM) | relative viability ([2]; first compound 0.3162 µM) | relative viability ([2]; first compound 1 µM) | relative viability ([3]; 0.01 µM) | relative viability ([3]; 0.03162 µM) | relative viability ([3]; 0.1 µM) | relative viability ([3]; 0.3162 µM) | relative viability ([3]; 1 µM) | relative viability ([4]; 0.02 µM) | relative viability ([4]; 0.06325 µM) | relative viability ([4]; 0.2 µM) | relative viability ([4]; 0.6325 µM)
1 | NCI-H2009 | 0.788 | 0.591 | 0.538 | 0.362 | 1.1 | 1.15 | 1.16 | 1.11 | 1.07 | 1.05 | 1.01 | 0.991 | 0.974 | 0.882 | 0.925 | 0.639 | 0.574 | 0.385
2 | CAL-12T | 0.768 | 0.935 | 0.849 | 0.772 | 1.25 | 1.08 | 1.01 | 1.43 | 1.25 | 0.944 | 1.05 | 0.923 | 0.956 | 0.886 | 0.88 | 0.794 | 0.781 | 0.737
3 | NCI-H1623 |  |  |  |  |  |  |  |  |  | 0.951 | 1.02 | 0.96 | 1.01 | 1.02 | 0.85 | 0.83 | 0.79 | 0.714
4 | HCC-78 | 0.468 | 0.359 | 0.392 | 0.425 | 0.371 | 0.303 | 0.313 | 0.326 | 0.361 | 1.1 | 1.21 | 1.01 | 0.959 | 0.942 | 0.924 | 0.853 | 0.802 | 0.91
5 | EKVX | 0.858 | 0.795 | 0.543 | 0.748 | 0.82 | 1 | 0.871 | 0.982 | 0.786 | 0.998 | 1 | 0.913 | 0.975 | 0.937 | 0.784 | 0.775 | 0.645 | 0.565
6 | NCI-H1703 | 0.309 | 0.255 | 0.403 | 0.434 | 0.361 | 0.436 | 0.349 | 0.385 | 0.303 | 0.869 | 0.953 | 0.917 | 0.99 | 0.788 | 0.974 | 0.816 | 0.9 | 0.909
7 | NCI-H1944 |  |  |  |  | 1.12 | 0.836 | 0.779 | 0.864 | 0.845 | 1.14 | 0.937 | 0.951 | 1.05 | 0.891 | 0.946 | 0.791 | 0.673 | 0.643
8 | NCI-H1755 | 0.952 | 0.859 | 0.834 | 0.914 | 0.968 | 0.912 | 0.842 | 0.962 | 0.893 | 0.996 | 1.04 | 0.977 | 0.995 | 0.967 | 0.952 | 0.963 | 0.916 | 0.922
9 | NCI-H358 |  |  |  |  | 0.769 | 0.828 | 0.786 | 0.903 | 0.839 | 1.04 | 0.916 | 0.898 | 0.975 | 0.863 | 0.618 | 0.456 | 0.373 | 0.31
10 | NCI-H1793 |  |  |  |  | 0.8 | 0.737 | 0.595 | 0.711 | 0.613 | 0.933 | 0.993 | 0.787 | 0.887 | 0.784 | 0.709 | 0.682 | 0.561 | 0.457
11 | ChaGo-K-1 | 0.959 | 0.993 | 0.942 | 1.05 |  |  |  |  |  | 1.06 | 1.16 | 0.888 | 1.01 | 0.99 | 0.999 | 0.939 | 0.946 | 0.929
12 | NCI-H522 |  |  |  |  |  |  |  |  |  | 0.955 | 1.02 | 0.976 | 0.988 | 0.982 | 0.896 | 0.957 | 1.02 | 0.927
13 | NCI-H1648 |  |  |  |  |  |  |  |  |  | 0.661 | 0.966 | 0.94 | 0.822 | 0.791 | 0.729 | 0.961 | 0.904 | 0.797
14 | SK-MES-1 |  |  |  |  | 0.857 | 0.898 | 0.887 | 0.788 | 0.831 | 0.961 | 1.05 | 0.993 | 1 | 0.902 | 0.921 | 0.885 | 0.698 | 0.527
15 | NCI-H1650 | 0.199 | 0.172 | 0.215 | 0.222 |  |  |  |  |  | 0.903 | 1.02 | 0.815 | 1.05 | 0.768 | 0.857 | 0.796 | 0.837 | 0.795
16 | NCI-H2342 |  |  |  |  |  |  |  |  |  | 1 | 0.984 | 1.03 | 1 | 0.967 | 0.888 | 0.896 | 0.943 | 0.946
17 | SW 900 |  |  |  |  |  |  |  |  |  | 0.795 | 0.954 | 0.716 | 0.878 | 0.836 | 0.805 | 0.776 | 0.79 | 0.809
18 | LK-2 |  |  |  |  | 0.993 | 1.28 | 1.12 | 1.19 | 1.06 | 0.947 | 1.11 | 0.929 | 0.938 | 1.02 | 1.08 | 1.05 | 0.88 | 1.04
19 | NCI-H1395 |  |  |  |  | 0.989 | 0.943 | 0.926 | 0.983 | 0.961 | 1.01 | 0.99 | 0.769 | 1.11 | 0.922 | 0.984 | 0.85 | 0.892 | 0.845
20 | A549 |  |  |  |  | 0.755 | 0.706 | 0.868 | 0.85 | 0.716 | 0.984 | 0.99 | 0.994 | 0.969 | 0.937 | 0.864 | 0.669 | 0.656 | 0.449
21 | NCI-H2170 |  |  |  |  | 0.769 | 0.739 | 0.75 | 0.825 | 0.788 | 0.863 | 0.944 | 0.904 | 0.91 | 0.877 | 0.982 | 0.97 | 0.896 | 0.937
